Values quoted from earlier work in patent US20100167988A1, “ETHOXYPHENYLMETHYL INHIBITORS OF SGLT2” (AUSPEX PHARMACEUTICALS, INC., priority 2008, published 2010).

Test system: multiple CYP enzymes, including CYP1A1, CYP1A2, CYP2A6, CYP2C9, CYP2D6, and CYP3A4
Conditions: recombinant CYP isoforms, in vitro

## CCOc1ccc(Cc2cc([C@@H]3O[C@H](CO)[C@@H](O)[C@H](O)[C@H]3O)ccc2Cl)cc1 [Dapagliflozin, (2S,3R,4R,5S,6R)-2-(3-(4-ethoxybenzyl)-4-chlorophenyl)-6-(hydroxymethyl)-tetrahydro-2H-pyran-3,4,5-triol]
  turnover: low
